For this assay, the system named is oxidized collagen IV. Description: Binding of DA-DKP and NAT to H2O2 treated collagen IV (LCMS of <5 kDa fraction). The arrangement: species or system human. The conditions noted are these: for binding to oxidized collagen, result in words: equimolar concentration. As for the experimental part: Collagen source: 1 mg/ml Collagen IV form human placenta in 0.25% acetic acid (Sigma™). The collagen was oxidixed with 500 μM H2O2 in 1×PBS for 1 hour at 37° C. The oxidized collagen IV (final=0.2 mg/ml) was then incubated with 2 μM DA-DKP or 2 NAT in PBS for 1 hour at 37° C. At the end of the incubation, the <5 kDa fraction was isolated by a VIVASPIN® 2 microcentrifugal filter having a molecular weight cutoff of 5,000. The <5 kDa fraction was analyzed for DA-DKP and/or NAT content using a liquid chromatograph-mass spectrometery (LCMS) method for DA-DKP analysis.

Setting [1] is: 2 μM + oxidized Collagen IV 0.2 mg/ml, 1 hour at 37° C., content of <5 kDa fraction.

The structures appear in SMILES notation. “Also recorded” adds a separate entry of the source.

On to `C[C@@H]1NC(=O)[C@H](CC(=O)O)NC1=O` [DA-DKP, aspartyl-alanyl diketopiperazine], for which the “binding to oxidized collagen, result in words” value is reported as “bind to oxidized forms of collagen”. In addition, the Average % decrease under setting [1] is given as 26.0%. The Average % decrease (2 μM + oxidized Collagen IV w/2 μM NAT) is recorded as 25.6%.

Turning to `CC(=O)N[C@@H](Cc1c[nH]c2ccccc12)C(=O)O` [NAT, N-acetyl-tryptophan], the “binding to oxidized collagen, result in words” value is listed as “binds more to oxidized collagen IV than DA-DKP; also recorded: bind to oxidized forms of collagen”. In addition, under setting [1], the Average % decrease is 48.9%. In addition, where the note is “2 μM + oxidized Collagen IV w/2 μM DA-DKP”, the Average % decrease is given as 28.7%.

For the origin of these results see patent publication US10842847B2, “Treatment of degenerative joint disease” (Ampio Pharmaceuticals, Inc., priority 2011, dated 2020).
